Patent US20240148625A1, “Estolide Esters For The Cosmetic Treatment Of Skin” (CLARIANT INTERNATIONAL LTD, priority 2020, published 2024)

Key:
[1] = Pigment wetting: viscosity difference rate of pigment dispersion; type: physicochemical; conditions: 65% emollient with 35% red iron oxide; rheometer 20.0° C., 10.0 1/s; lower = better pigment wetting
Text: The viscosity of a pigment dispersion in oil is negatively correlated to the dispersion efficacy of the carrier liquid emollient. Therefore, decreased viscosities confirm the homogeneity of the dispersion. To calculate the viscosity difference rate between the pure emollient without added pigment and the pigment dispersion, the following formula will be used: Viscosity difference rate=(viscosity value after pigment dispersion−viscosity value before pigment dispersion)/(viscosity value before pigment dispersion) The lower the viscosity difference rate the better the pigment wetting. Mixtures of 65% emollient with 35% pigment (red iron oxide) were homogenized and analyzed*. [table]

[2] = Pigment dispersion: particle size by Grindometer; type: physicochemical; conditions: 65% emollient with 35% yellow iron oxide, next day, average of 3
Text: Mixtures of 65% emollient with 35% pigment (yellow iron oxide) were homogenized and analyzed*. [table]

Viscosity difference rate [1]: 21
Average particle size [2]: 31 μm
Substance: Pentaerythrityl Tetraisostearate
